Laboratory results from ChEMBL document CHEMBL5316331, “Modulating Cytotoxicity with Lego-like Chemistry: Upgrading Mitochondriotropic Antioxidants with Prototypical Cationic Carrier Bricks” (J Med Chem, 2023).
The source made the active and inactive calls. No cut-off for these calls is given here.

What was measured:
SH-SY5Y [1] = test: Effect on cell morphology in human SH-SY5Y cells assessed as reduction in cell body at 50 uM incubated for 24 hrs by Phase-contrast microscopy; assay type: functional, cell-based
SH-SY5Y [2] = test: Effect on cell death pathway in human SH-SY5Y cells assessed as increase in necrotic cells at 50 uM incubated for 24 hrs by Annexin V-FITC/PI staining based microscopy; assay type: functional
SH-SY5Y [3] = test: Effect on cell death pathway in human SH-SY5Y cells assessed as increase in early apoptotic cells at 100 uM incubated for 24 hrs by Annexin V-FITC/PI staining based microscopy; assay type: functional
SH-SY5Y [4] = test: Effect on cell death pathway in human SH-SY5Y cells assessed as increase in necrotic cells at 100 uM incubated for 24 hrs by Annexin V-FITC/PI staining based microscopy; assay type: functional
SH-SY5Y [5] = test: Effect on cell death pathway in human SH-SY5Y cells assessed as increase in late apoptotic cells at 50 uM incubated for 24 hrs by Annexin V-FITC/PI staining based microscopy; assay type: functional
SH-SY5Y [6] = test: Effect on cell morphology in human SH-SY5Y cells assessed as reduction in neurite at 50 uM incubated for 24 hrs by Phase-contrast microscopy; assay type: functional, cell-based
SH-SY5Y [7] = test: Effect on cell death pathway in human SH-SY5Y cells assessed as increase in late apoptotic cells at 100 uM incubated for 24 hrs by Annexin V-FITC/PI staining based microscopy; assay type: functional
SH-SY5Y [8] = test: Effect on cell mitochondrial mass in human SH-SY5Y cells assessed as reduction on mitochondrial mass at 50 uM incubated for 24 hrs by mito-tracker green dye based flow cytometry; assay type: functional; parameters: scale not given: the % may be the effect or the level left
SH-SY5Y [9] = test: Effect on cell morphology in human SH-SY5Y cells assessed as reduction in cell body at 100 uM incubated for 24 hrs by Phase-contrast microscopy; assay type: functional, cell-based
SH-SY5Y [10] = test: Effect on cell morphology in human SH-SY5Y cells assessed as reduction in neurite at 100 uM incubated for 24 hrs by Phase-contrast microscopy; assay type: functional, cell-based
SH-SY5Y [11] = test: Effect on cell death pathway in human SH-SY5Y cells assessed as increase in early apoptotic cells at 50 uM incubated for 24 hrs by Annexin V-FITC/PI staining based microscopy; assay type: functional
SH-SY5Y [12] = test: Neuroprotective activity against H2O2-induced human SH-SY5Y cells assessed as increase in cell viability at 50 uM preincubated for 30 mins followed by H2O2 addition and measured after 24 hrs by SRB assay; assay type: functional, cell-based; settings: time 24.5 hrs
SH-SY5Y [13] = test: Antioxidant activity against human SH-SY5Y cells assessed as effect on cellular OCR at 50 uM incubated for 24 hrs followed by addition of oligomycin/FCCP/antimycin A /rotenone by Cell Mito stress assay based seahorse XF96 flux analyzer; assay type: functional
SH-SY5Y [14] = test: Neuroprotective activity against H2O2-induced human SH-SY5Y cells assessed as increase in cell viability at 10 uM preincubated for 30 mins followed by H2O2 addition and measured after 24 hrs by SRB assay; assay type: functional, cell-based; settings: time 24.5 hrs
[15] = Cytotoxicity against human HepG2 cells assessed as cell viability incubated for 24 hrs; assay type: toxicity, cell-based; settings: read-out: Activity
HepG2 = test: Cytotoxicity against human HepG2 cells assessed as increase in cell viability at 10 to 100 uM incubated for 24 hrs; assay type: toxicity, cell-based; settings: hepg2, 24 h, dose 10-100 µM
[16] = Drug uptake in C57BL/6J mouse liver mitochondria at 5 uM in presence of FCCP by UPLC analysis; assay type: ADME
SH-SY5Y [17] = test: Cytotoxicity against human SH-SY5Y cells assessed as increase in cell viability at 10 to 100 uM incubated for 24 hrs; assay type: toxicity, cell-based; settings: dose 10-100 µM
[18] = Drug uptake in C57BL/6J mouse liver mitochondria at 5 uM in presence of rotenone by UPLC analysis; assay type: ADME
SH-SY5Y [19] = test: Antioxidant activity against human SH-SY5Y cells assessed as effect on cellular OCR at 10 uM incubated for 24 hrs followed by addition of oligomycin/FCCP/antimycin A /rotenone by Cell Mito stress assay based seahorse XF96 flux analyzer; assay type: functional
[20] = Drug uptake in C57BL/6J mouse liver mitochondria at 5 uM in presence of succinate by UPLC analysis; assay type: ADME
[21] = Cytotoxicity against human SH-SY5Y cells assessed as cell viability incubated for 24 hrs; assay type: toxicity, cell-based; settings: read-out: Activity
SH-SY5Y [22] = test: Cytotoxicity against human SH-SY5Y cells at > 10 uM incubated for 48 hrs; assay type: toxicity, cell-based

In the case of `N#CC(C#N)=NNc1cccc(Cl)c1` [CARBONYL CYANIDE M-CHLOROPHENYLHYDRAZONE], the Activity (SH-SY5Y [1]) is reported as “Active”, the Activity (SH-SY5Y [2]) is reported as “Active” and the Activity (SH-SY5Y [3]) is reported as “Active”. The Activity (SH-SY5Y [4]) was “Active”, the Activity (SH-SY5Y [5]) was “Active” and the Activity (SH-SY5Y [6]) was “Active”. The Activity (SH-SY5Y [7]) was “Active”, the Activity (SH-SY5Y [8]) was 77.4% and the Activity (SH-SY5Y [9]) was “Active”. The Activity (SH-SY5Y [10]) was “Active” and the Activity (SH-SY5Y [11]) was “Active”.
With `CS(=O)(=O)[O-].Cn1cc[n+](CCCCCCCCCCNC(=O)/C=C/c2ccc(O)c(O)c2)c1` the Activity (SH-SY5Y [12]) was “inactive”, the Activity (SH-SY5Y [13]) was “inactive” and the Activity (SH-SY5Y [14]) was “inactive”. For the same compound, the viability at 24 h [15] was at least 85%, the Activity (HepG2) was “Non-Toxic” and the Drug uptake [16] was “Active”. For the same compound, the Activity (SH-SY5Y [17]) was “Non-Toxic”, the Drug uptake [18] was “Not Active” and the Activity (SH-SY5Y [19]) was “inactive”. For the same compound, the Drug uptake [20] was ~ 25%, the viability at 24 h [21] was at least 85% and the Activity (SH-SY5Y [22]) was “Toxic”.
